Reference: patent EP4671246A1, “6-ALKOXYPYRAZOLOPYRIMIDINE COMPOUND AND PHARMACEUTICAL USE THEREOF” (Japan Tobacco Inc., priority 2023, dated 2024)

These compounds were tested against T1, NLRP3 inflammasome (Homo sapiens, UniProt Q96P20) (assay: Evaluation of NLRP3 inflammasome inhibitory activity (inhibition of IL-1β production in THP1-Null cells)). Conditions: 0.5 µmol/L PMA overnight, 1 µg/mL Lipopolysaccharides 3 hours, Nigericin 7.5 µmol/L 1.5 hours, AlphaLISA Human IL-1β.
T1 construct: host or cells: THP1-Null cells (PMA-differentiated, LPS-primed, nigericin-stimulated)
T1 sequence (Q96P20 whole entry): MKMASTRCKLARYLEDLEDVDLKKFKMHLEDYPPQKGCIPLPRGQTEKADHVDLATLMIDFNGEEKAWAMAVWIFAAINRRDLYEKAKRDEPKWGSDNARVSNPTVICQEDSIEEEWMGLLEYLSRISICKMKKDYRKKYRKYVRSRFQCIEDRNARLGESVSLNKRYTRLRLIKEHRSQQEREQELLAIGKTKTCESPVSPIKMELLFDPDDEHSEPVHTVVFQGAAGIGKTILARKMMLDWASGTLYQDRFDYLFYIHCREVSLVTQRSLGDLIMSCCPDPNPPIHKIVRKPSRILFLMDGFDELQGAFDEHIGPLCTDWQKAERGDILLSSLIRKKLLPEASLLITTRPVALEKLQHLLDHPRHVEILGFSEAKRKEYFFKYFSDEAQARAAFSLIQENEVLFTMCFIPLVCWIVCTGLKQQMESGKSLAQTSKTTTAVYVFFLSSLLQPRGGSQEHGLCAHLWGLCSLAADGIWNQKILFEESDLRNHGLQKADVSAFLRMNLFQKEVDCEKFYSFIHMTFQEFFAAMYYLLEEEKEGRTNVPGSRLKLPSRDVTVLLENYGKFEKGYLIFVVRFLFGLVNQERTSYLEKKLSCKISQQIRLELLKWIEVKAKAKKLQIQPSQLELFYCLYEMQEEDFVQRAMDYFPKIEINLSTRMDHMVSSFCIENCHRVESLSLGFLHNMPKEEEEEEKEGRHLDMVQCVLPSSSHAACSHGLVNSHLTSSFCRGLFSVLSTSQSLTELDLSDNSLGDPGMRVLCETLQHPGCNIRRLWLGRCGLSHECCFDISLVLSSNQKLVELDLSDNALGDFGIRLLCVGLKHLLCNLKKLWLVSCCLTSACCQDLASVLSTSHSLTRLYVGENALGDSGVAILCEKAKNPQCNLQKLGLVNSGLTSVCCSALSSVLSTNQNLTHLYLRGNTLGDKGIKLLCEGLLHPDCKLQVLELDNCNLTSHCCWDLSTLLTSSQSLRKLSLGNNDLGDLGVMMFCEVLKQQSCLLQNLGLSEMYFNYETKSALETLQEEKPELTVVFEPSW
Format: cell-based
Description: The NLRP3 inflammasome inhibitory activity of test compounds were evaluated on the basis of the inhibitory activity of the IL-1β production in THP1-Null cells (Product Number: thp-null, InvivoGen). Cells were maintained for culture in RPMI-1640 media containing 10% (v/v) fetal bovine serum, 25 mmol/L HEPES, 100 U/mL penicillin, 100 µg/mL streptomycin, 100 µg/mL normocin, and 200 µg/mL hygromycin B (set at 37°C, 5% CO2/95% air) .
Cells were suspended with media for assay containing 0.5 µmol/L PMA (RPMI-1640 media containing 10% (v/v) fetal bovine serum, 100 U/mL penicillin, and 100 µg/mL streptomycin), and the suspended cells were seeded on Corning (registered trademark) 384-well Flat Clear Bottom Black Polystyrene TC-treated Microplates (25,000 cells/25 µL/well), followed by incubation (set at 37°C, 5% CO2/95% air) overnight. The supernatant of the culture was removed, and thereto was added media for assay (25 µL/well) containing 1 µg/mL Lipopolysaccharides (Product Number: L2654, Sigma-Aldrich (registered trademark)). Then, the culture was further incubated for 3 hours (set at 37°C, 5% CO2/95% air) . The supernatant of the culture was removed. Then, a vehicle solution prepared from Opti-MEM (trademark) medium (Product Number: 31985-070, Invitrogen) was added to blank-setting wells and control-setting wells (20 µL/well), followed by incubation for 15 minutes (set at 37°C, 5% CO2/95% air). A solution containing a test compound (20 µL/well) was added to test compound-setting wells. Further, Opti-MEM (trademark) medium containing Nigericin (Product Number: N7143, Sigma-Aldrich (registered trademark)) was added to the control-setting wells and test compound-setting wells (5 µL/well), followed by incubation for 1.5 hours (set at 37°C, 5% CO2/95% air). The final concentration of Nigericin was adjusted to be 7.5 µmol/L. 5 µL/well of Opti-MEM (trademark) medium was added to the blank-setting wells. The supernatant of the culture was cryonically stored (set at -20°C) until measurement of IL-1β.
The amount of IL-1β in the culture supernatant was quantitated with AlphaLISA (registered trademark) Human IL-1β Detection Kit (Product Number: AL220C, Perkin Elmer). Fluorescence intensity was measured with a microplate reader EnSpier (Model number: 2300-00J, Perkin Elmer) or EnSight (Model number: HH34000000, Perkin Elmer) according to procedure manuals attached thereto. Inhibition rates of the test compound-setting wells were calculated on the basis of 100% for the blank-setting wells and 0% for the control-setting wells. IC50 values (i.e., 50% inhibitory concentrations) of the test compounds were calculated by logistic regression analysis.
`COc1nc2nn(-c3c(C)cc(OC(F)(F)F)cc3C)cc2c(=O)[nH]1` [Example 61] showed an IC50 of 69 nM.
Work on `Cc1cc(Br)cc(C)c1-n1cc2c(=O)[nH]c(OCCC(C)(C)O)nc2n1` [Example 20] yielded an IC50 of 22 nM.
With `COc1nc2nn(-c3c(Cl)cc(C(F)(F)F)cc3OC)cc2c(=O)[nH]1` [Example 15] the IC50 was 1300 nM.
`Cc1cc(C2CC2)cc(C)c1-n1cc2c(=O)[nH]c(OCCCS(C)(=O)=O)nc2n1` [Example 38] showed an IC50 of 8 nM.
With `COc1nc2nn(-c3ccc(Br)cc3C(O)C3CC3)cc2c(=O)[nH]1` (racemic) [Example 53] the IC50 was 160 nM.
`Cc1cc(Br)cc(C)c1-n1cc2c(=O)[nH]c(OCCN(C)C)nc2n1` [Example 25] showed an IC50 of 53 nM.
`COCc1cc(C)c(-n2cc3c(=O)[nH]c(OC)nc3n2)c(C)c1` [Example 87] was tested, and the IC50 was 1200 nM.
Work on `COc1nc2nn(-c3ccc(Cl)cc3C)cc2c(=O)[nH]1` [Example 11] yielded an IC50 of 50 nM.
Compound `Cc1cc(Br)cc(C)c1-n1cc2c(=O)[nH]c(OCC3(C#N)CC3)nc2n1` [Example 17] has an IC50 of 73 nM.
Compound `Cc1cc(Br)cc(C)c1-n1cc2c(=O)[nH]c(O[C@@H]3CCOC3)nc2n1` [Example 36] has an IC50 of 19 nM.
In the case of `CCOc1nc2nn(-c3c(C)cc(C4CC4)cc3C)cc2c(=O)[nH]1` [Example 50], the IC50 is reported as 10 nM.
Compound `COc1ccc(-n2cc3c(=O)[nH]c(OC)nc3n2)c(C2CC2)c1` [Example 48] has an IC50 of 190 nM.
`COc1nc2nn(-c3c(C)cc(OC(F)F)cc3F)cc2c(=O)[nH]1` [Example 66] gave an IC50 of 78 nM.
Compound `COCc1cc(C2CC2)ccc1-n1cc2c(=O)[nH]c(OC)nc2n1` [Example 42] has an IC50 of 63 nM.
In the case of `COc1nc2nn(-c3c(F)cc(F)cc3Cl)cc2c(=O)[nH]1` [Example 75], the IC50 is reported as 1300 nM.
In the case of `Cc1cc(Br)cc(C)c1-n1cc2c(=O)[nH]c(OCCC3CCOCC3)nc2n1` [Example 72], the IC50 is reported as 27 nM.
With `Cc1cc(C2CC2)cc(C)c1-n1cc2c(=O)[nH]c(OCCC3CCOCC3)nc2n1` [Example 73] the IC50 was 18 nM.
For `COc1nc2nn(-c3cc(C)ccc3C(F)(F)F)cc2c(=O)[nH]1` [Example 97], the IC50 was 1200 nM.
With `Cc1cc(C)c(-n2cc3c(=O)[nH]c(OCc4ccccc4)nc3n2)c(C)c1` [Example 7] the IC50 was 72 nM.
`COc1nc2nn(-c3ccccc3C)cc2c(=O)[nH]1` [Example 1] showed an IC50 of 4200 nM.
`COc1nc2nn(-c3cc4c(cc3Cl)OCC4)cc2c(=O)[nH]1` [Example 82] gave an IC50 of 75 nM.
`COc1nc2nn(-c3ccc(C4CC4)cc3C(F)F)cc2c(=O)[nH]1` [Example 60] showed an IC50 of 16 nM.
For `COCc1cc(OC(F)F)cc(C)c1-n1cc2c(=O)[nH]c(OC)nc2n1` [Example 110], the IC50 was 210 nM.
`COc1nc2nn(-c3c(C)cc(OC(F)F)cc3Cl)cc2c(=O)[nH]1` [Example 78] gave an IC50 of 40 nM.
`COCc1cc(Br)cc(C)c1-n1cc2c(=O)[nH]c(OC)nc2n1` [Example 88] showed an IC50 of 44 nM.
For `COc1nc2nn(-c3c(C)cc(C(F)F)cc3C)cc2c(=O)[nH]1` [Example 65], the IC50 was 140 nM.
`COCc1cc(OC)cc(C)c1-n1cc2c(=O)[nH]c(OC)nc2n1` [Example 93] gave an IC50 of 230 nM.
In the case of `COc1cc(C)c(-n2nc3nc(OC)[nH]c(=O)c3c2C2CC2)c(C)c1` [Example 95], the IC50 is reported as 68 nM.
`CCc1c2c(=O)[nH]c(OC)nc2nn1-c1c(C)cc(OC)cc1C` [Example 91] gave an IC50 of 140 nM.
For `COc1cc(F)c(-n2cc3c(=O)[nH]c(OC)nc3n2)c(Cl)c1` [Example 76], the IC50 was 74 nM.
Compound `CCOc1nc2nn(-c3c(C)cc(C)cc3C)cc2c(=O)[nH]1` [Example 9] has an IC50 of 23 nM.
`COc1nc2nn(-c3c(Cl)cc(F)cc3OC)cc2c(=O)[nH]1` [Example 77] gave an IC50 of 2400 nM.
`COc1nc2nn(-c3ccc(Cl)cc3CC3CC3)cc2c(=O)[nH]1` [Example 55] showed an IC50 of 70 nM.
With `COCCOc1nc2nn(-c3c(C)cc(C)cc3C)cc2c(=O)[nH]1` [Example 4] the IC50 was 74 nM.
In the case of `COc1nc2nn(-c3ccc(Br)cc3C(C)C)cc2c(=O)[nH]1` [Example 81], the IC50 is reported as 58 nM.
`CCOc1nc2nn(-c3ccc(OC)cc3Br)cc2c(=O)[nH]1` [Example 49] gave an IC50 of 73 nM.
With `Cc1cc(C2CC2)cc(C)c1-n1cc2c(=O)[nH]c(OCCCS(=O)(=O)C(C)C)nc2n1` [Example 62] the IC50 was 4 nM.
`CCc1cc(C(C)(F)F)cc(C)c1-n1cc2c(=O)[nH]c(OC)nc2n1` [Example 89] was tested, and the IC50 was 24 nM.
`COCC1(COc2nc3nn(-c4c(C)cc(Br)cc4C)cc3c(=O)[nH]2)CC1` [Example 18] gave an IC50 of 34 nM.
For `COc1nc2nn(-c3ccc(Cl)c(C)c3C)cc2c(=O)[nH]1` [Example 32], the IC50 was 760 nM.
`COc1nc2nn(-c3c(C)cc(C4CC4)cc3Cl)cc2c(=O)[nH]1` [Example 83] gave an IC50 of 8 nM.
Work on `COc1nc2nn(-c3c(C)cc(C4CC4)cc3C)cc2c(=O)[nH]1` [Example 14] yielded an IC50 of 8 nM.
For `COc1nc2nn(-c3c(C)cc(C(C)(F)F)cc3Cl)cc2c(=O)[nH]1` [Example 84], the IC50 was 45 nM.
Work on `CCOc1nc2nn(-c3c(C)cc(OC(F)F)cc3C)cc2c(=O)[nH]1` [Example 54] yielded an IC50 of 13 nM.
Work on `CCc1cc(OC)cc(C)c1-n1cc2c(=O)[nH]c(OC)nc2n1` [Example 86] yielded an IC50 of 49 nM.
Compound `Cc1cc(Br)cc(C)c1-n1cc2c(=O)[nH]c(OC[C@H]3CCOC3)nc2n1` [Example 111] has an IC50 of 50 nM.
With `COc1nc2nn(-c3c(C)cc(C(F)(F)F)cc3C)cc2c(=O)[nH]1` [Example 22] the IC50 was 43 nM.
Work on `Cc1cc(Br)cc(C)c1-n1cc2c(=O)[nH]c(OC3CCOCC3)nc2n1` [Example 16] yielded an IC50 of 25 nM.
In the case of `Cc1cc(C2CC2)cc(C)c1-n1cc2c(=O)[nH]c(OCCC(C)(C)C#N)nc2n1` [Example 117], the IC50 is reported as 31 nM.
`COc1nc2nn(-c3ccc(C4CC4)cc3C(F)(F)F)cc2c(=O)[nH]1` [Example 45] was tested, and the IC50 was 14 nM.
For `COc1nc2nn(-c3ccc(Br)cc3C3CC3)cc2c(=O)[nH]1` [Example 47], the IC50 was 53 nM.
